The text below walks through data of patent US12507721B2, “Ready-to-use parenteral nutrition formulation” (BAXTER INTERNATIONAL INC., priority 2021, dated 2025).

The nature of data set [1]: Vitamin stability in 35% glucose solution during sterilization and storage. Format: physicochemical. As to conditions: for Unsterilized T0 concentration / T1M40° C. concentration / T3M40° C. concentration / Cycle 3 T0 concentration / T6M40° C. concentration / Cycle 4 T0 concentration: 35% glucose solution; for T1M40° C. concentration: 1 month at 40° C.; for T3M40° C. concentration: 3 months at 40° C.; for Cycle 3 T0 concentration: C0 = 25 minutes; for Cycle 3 T0 concentration / Cycle 4 T0 concentration: after sterilization; for T6M40° C. concentration: 6 months at 40° C., B12 value (*) is the sum of cyanocobalamin and hydroxocobalamin; for Cycle 4 T0 concentration: C0 = 19 minutes. Here is the method: For testing the stability of vitamin B12 in formulation as they are typically used in parenteral nutrition, a 35% glucose solution, a 14.2% amino acid formulation such as found, for example, in Olimel N9E (Baxter), and a 20% lipid emulsion such as found in Clinoleic 20% (Baxter) were supplemented with different vitamin combinations which always included vitamin B12. KCl was added into the glucose solution to understand if it has an effect on the stability of vitamin B12. Vitamin B1 was introduced as thiamin HCl. Ascorbyl palmitate was added to the lipid emulsion formulation as a stabilizing agent due to its antioxidant properties. In addition, two separate micellar solutions (“Vit A” and “Vit B”, see Table 9) comprising certain vitamins to be assessed with regard to degradation (B3, B6, B8, B9, B12, C) but formulated with different excipients as micellization agents were tested for vitamin B12 stability. Vit A consisted of a solution of mixed micelles with ascorbyl palmitate as a potential stability enhancer. Vit B was formulated with a mix of polysorbates, PEG and sorbitol to form micelles. The micellar solutions were prepared by mixing, under high speed, a solution composed of glycocholic acid and lecithins dissolved in water. In case of Vit B, the glycocholic acid and lecithin were replaced by PEG and polysorbate. All formulations were provided in standard flexible containers and overpouched with an aluminum overpouch for subsequent sterilization. For an overview over formulations and conditions see Table 9.
All samples were submitted to two different sterilization technologies. Steam sterilization targeting a F0=8 min was used for large volumes (400/800 ml, Cycle 2) and for small volumes (25/50 ml, Cycle 1) as lined out in Table 9 above. The same samples were sterilized by water spray sterilization with a serial tower continuous sterilization equipment with two different exposure times (Cycles 3 (25 min.) and 4 (19 min.)).
The vitamin recovery was then compared between the different sterilization cycles and formulations to understand the impact of the formulation and the sterilization technology used on their respective short- and long-term stability. Therefore, after sterilization, the samples were stored at 40° C./25% RH for 6 months to evaluate the recovery of vitamin B12 at T1M, T3M and T6M. Besides, backup samples were stored at 5° C. Finally, some samples were also stored at 25° C./40% RH to provide for real time stability data.

Data set [2] is described as follows: Studies of vitamin B12 in lipid emulsions irrespective of oil source, pH or stabilizing agent. Format: physicochemical. The protocol:
(storage for 3 months at 40° C.), even though hydroxocobalamin seems to remain relatively stable for about 6 months at 40° C.

A short description of data set [3]: Selenium stability in trace element solutions with selenate, selenomethionine or selenite. Particulars: for selenium concentration during storage: TE formulation pH 2.2, heat sterilized, conditions not optimized for DO, FIGS. 9-11. Here is the method: (§1) Timepoint 0 corresponds to the results of TE dosage right after sterilization. […] Timepoints 1, 3 and 6 correspond to the results of TE dosage after 1 month, 3 months and 6 months storage at 40° C./25% RH.
as §1, §1
For the three tested solutions containing different forms of selenium, the selenium is mixed with other TE (Zn, Cu, Mn, F, I, Mo, Cr, Fe), which were introduced as chloride salts. The solutions were acidified to pH 2.2 using malic acid and underwent terminal heat sterilization prior to storage.

A short description of data set [4]: Impact of DO on selenium stability; mix of 9 trace elements. Type of data set: physicochemical. As to conditions: sterilized samples stored at 40° C., FIG. 5. The protocol:
The impact of oxygen seems of major importance in the stability of selenite containing trace element formulations. […] To confirm this hypothesis, a regression test was performed between Se assay results and log(dissolved oxygen results). Only sterilized samples stored at 40° C. were considered as the sterilization and storage at high temperature seem to both increase the Se degradation.
The presence of oxygen promotes selenite stability. To ensure that it is not deleterious to another TE the stability of a mix of the 9 TE of interest (i.e. Zn, Cu, Cr, Mo, Mn, Fe, I, F & Se) was evaluated at pH 2.2 with 200 mM of malic acid (to ensure iodide stability) and stored in a glass bottle (so containing about 3 ppm of dissolved oxygen). The solution was heat sterilized and stored 6 months at 40° C. or 5° C. (T6M 40° C. and T6M 5° C., respectively).

A short description of data set [5]: Storage of Glucose Batch 1 at 40° C./25% RH for 6 months. Type of data set: physicochemical. As to conditions: sterilization cycles of Example 7. The protocol: In a next step, the stability of vitamin B12 was examined in Glucose Batch 1 which seemed to be the most promising based on the results shown in Table 7. Accordingly, several bags were stored at 40° C./25% RH for 6 months (T6M). Batch Glucose 1 was analyzed at T6M to revisit the presence of vitamin B12 in either its cyanocobalamin or hydroxocobalamin form. In order to test the validity of the test, vitamins B1, B3 and B6 were tested together with vitamin B12 both after sterilization and then throughout shelf life.

The conditions of data set [6]: pediatric PN formulation stored at 25° C.; cited from earlier work.
Where [7] appears, read: 25 ml, Cycle 1 steam sterilization.
The mark [8] stands for this setting: 800 ml, Cycle 2 steam sterilization.
[9] abbreviates: 800 ml, Cycle 3 water spray sterilization.
The mark [10] stands for this setting: 800 ml, Cycle 4 water spray sterilization.

In the case of cyanocobalamin [B12 CC], in data set [1] (standard PN glucose solution, Cycles 1 and 2 (steam sterilization), FIG. 4), the “detection of cyanocobalamin after 6 months” value was “no cyanocobalamin can be detected”. For the same compound, the detection of cyanocobalamin result in data set [2] (T3M40° C. (storage for 3 months at 40° C.)) is listed as “no more cyanocobalamin can be detected”.
Consider `O=[Se](=O)(O)O` [Selenate, sodium selenate], for which the “selenium concentration during storage” value in data set [3] is recorded as “remained stable”.
As to `O=[Se](O)O` [selenite, sodium selenite], the “oxygen amount sufficient to ensure stability in the trace element formulation” value in data set [4] is recorded as “around 0.5 ppm”. Besides, the “stability after three months” value in data set [3] (TE solution pH 2.2 (malic acid), terminal heat sterilization, DO not strictly controlled, analysis stopped) is recorded as “lack of stability”.
For the compound `Cc1ncc(C[n+]2csc(CCO)c2C)c(N)n1` [Batch B1, thiamine], the degradation during sterilization result in data set [5] is “no significant degradation”.
As to `NC(=O)c1cccnc1` [Batch B3, Nicotinamide], the degradation during sterilization entry in data set [5] is listed as “no significant degradation”. Further, the “Unsterilized T0 concentration” value in data set [1] (25 ml (Table 10A)) is listed as 51.10 mg/L; in data set [1] (800 ml (Table 10B)) it was 51.10 mg/L; in data set [1] (800 ml (Table 11A)), 52.80 mg/L; in data set [1] (800 ml (Table 11B)) it was 52.80 mg/L. The “T1M40° C. concentration” value in data set [1] (setting [7]) came out at 49.30 mg/L; in data set [1] (setting [8]), 50.60 mg/L. The “T3M40° C. concentration” value in data set [1] (setting [7]) amounted to 50.20 mg/L; in data set [1] (setting [8]) it was 51.20 mg/L; in data set [1] (setting [9]), 50.30 mg/L; in data set [1] (setting [10]), 51.00 mg/L. The “Cycle 3 T0 concentration” value in data set [1] (setting [9]) is recorded as 50.50 mg/L. The “T6M40° C. concentration” value was found to be 48.27 mg/L in data set [1] (setting [9]) and 49.35 mg/L in data set [1] (setting [10]). In data set [1] (setting [10]), the “Cycle 4 T0 concentration” value stood at 50.40 mg/L.
`Cc1ncc(CO)c(CO)c1O` [Batch B6, pyridoxine]: the degradation during sterilization result in data set [5] is reported as “no significant degradation”. In addition, the “Unsterilized T0 concentration” value was 6.40 mg/L in data set [1] (25 ml (Table 10A)), 6.40 mg/L in data set [1] (800 ml (Table 10B)), 6.61 mg/L in data set [1] (800 ml (Table 11A)) and 6.61 mg/L in data set [1] (800 ml (Table 11B)). Further, the “T1M40° C. concentration” value in data set [1] (setting [7]) was 6.40 mg/L; in data set [1] (setting [8]), 5.93 mg/L. Moreover, the “T3M40° C. concentration” value in data set [1] (setting [7]) is reported as 6.50 mg/L; in data set [1] (setting [8]), 6.00 mg/L; in data set [1] (setting [9]), 6.10 mg/L; in data set [1] (setting [10]) it was 5.90 mg/L. In data set [1] (setting [9]), the “Cycle 3 T0 concentration” value stood at 6.23 mg/L. For the same compound, the “T6M40° C. concentration” value is 6.04 mg/L in data set [1] (setting [9]) and 6.03 mg/L in data set [1] (setting [10]). Further, the “Cycle 4 T0 concentration” value in data set [1] (setting [10]) is recorded as 6.27 mg/L.
As to `C[Se]CC[C@H](N)C(=O)O` [selenomethionine], the “selenium concentration during storage” value in data set [3] was “remained stable”.
For the compound `C/C1=C2/[N-][C@H]([C@H](CC(N)=O)[C@@]2(C)CCC(=O)NC[C@@H](C)OP(=O)([O-])O[C@H]2[C@@H](O)[C@@H](n3cnc4cc(C)c(C)cc43)O[C@@H]2CO)[C@]2(C)N=C(/C(C)=C3N=C(/C=C4N=C1[C@@H](CCC(N)=O)C\4(C)C)[C@@H](CCC(N)=O)[C@]\3(C)CC(N)=O)[C@@H](CCC(N)=O)[C@]2(C)CC(N)=O.[Co+3].[OH-]` [B12 HC, hydroxocobalamin], the “time remaining relatively stable” value in data set [2] (at 40° C.) was “about 6 months”.
Take `O=C1O[C@H]([C@@H](O)CO)C(O)=C1O` [vitamin C, ascorbic acid]: in data set [6], the “time after which instability was presented” value was 48 h.
